According to PubChem BioAssay AID248 (DTP/NCI, 2004):
“And” between values parts separate entries of the source, which are not always exact repeats. Identical values can stand only once. Toxic doses and inconclusive results are not listed. Rule as the data show it: active = T/C of 150% or more; inactive = T/C below 125%.

System: L1210 leukemia ip in BDF1 mice, survival T/C
Experiment: NCI In Vivo Anticancer Drug Screen. Data for tumor model L1210 Leukemia (intraperitoneal) in B6D2F1 (BDF1) mice
Conditions: endpoint: mean survival time, higher = longer survival
Procedure, shortened: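 In this screen, tumor-bearing mice given compound are compared to those given vehicle, and their survival values are reported as a treated-to-control quotient.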

[1] = dose: 100.0 mg/kg/injection, schedule: Q04DX002 (ip), vehicle: Klucel (hydroxypropylcellulose) (HPC)
[2] = dose: 200.0 mg/kg/injection, schedule: Q04DX002 (ip), vehicle: Klucel (hydroxypropylcellulose) (HPC)
[3] = dose: 400.0 mg/kg/injection, schedule: Q04DX002 (ip), vehicle: Klucel (hydroxypropylcellulose) (HPC)
[4] = dose: 100.0 mg/kg/injection, schedule: Q04DX002 (ip), vehicle: saline with Tween-80
[5] = dose: 200.0 mg/kg/injection, schedule: Q04DX002 (ip), vehicle: saline with Tween-80
[6] = dose: 400.0 mg/kg/injection, schedule: Q04DX002 (ip), vehicle: saline with Tween-80
[7] = dose: 50.0 mg/kg/injection, schedule: Q01DX001 (ip), vehicle: saline
[8] = dose: 100.0 mg/kg/injection, schedule: Q01DX001 (ip), vehicle: saline
[9] = dose: 200.0 mg/kg/injection, schedule: Q01DX001 (ip), vehicle: saline
[10] = dose: 400.0 mg/kg/injection, schedule: Q01DX001 (ip), vehicle: saline
[11] = dose: 12.5 mg/kg/injection, schedule: Q01DX009 (ip), vehicle: saline with Tween-80
[12] = dose: 25.0 mg/kg/injection, schedule: Q01DX009 (ip), vehicle: saline with Tween-80
[13] = dose: 50.0 mg/kg/injection, schedule: Q01DX009 (ip), vehicle: saline
[14] = dose: 100.0 mg/kg/injection, schedule: Q01DX001 (ip), vehicle: other
[15] = dose: 100.0 mg/kg/injection, schedule: Q01DX009 (ip), vehicle: saline with Tween-80
[16] = dose: 200.0 mg/kg/injection, schedule: Q01DX009 (ip), vehicle: saline with Tween-80
[17] = dose: 400.0 mg/kg/injection, schedule: Q01DX009 (ip), vehicle: saline with Tween-80
[18] = dose: 100.0 mg/kg/injection, schedule: Q01DX009 (ip), vehicle: Klucel (hydroxypropylcellulose) (HPC)
[19] = dose: 200.0 mg/kg/injection, schedule: Q01DX009 (ip), vehicle: Klucel (hydroxypropylcellulose) (HPC)
[20] = dose: 400.0 mg/kg/injection, schedule: Q01DX009 (ip), vehicle: Klucel (hydroxypropylcellulose) (HPC)
[21] = dose: 100.0 mg/kg/injection, schedule: Q04DX003 (ip), vehicle: Klucel (hydroxypropylcellulose) (HPC)
[22] = dose: 200.0 mg/kg/injection, schedule: Q04DX003 (ip), vehicle: Klucel (hydroxypropylcellulose) (HPC)
[23] = dose: 400.0 mg/kg/injection, schedule: Q04DX003 (ip), vehicle: Klucel (hydroxypropylcellulose) (HPC)

Measured: T/C

CCCCNC(=O)C(=O)NCCCC
inactive: dose: 100.0 mg/kg/injection, schedule: Q01DX001 (ip), vehicle: Klucel (hydroxypropylcellulose) (HPC) 108 % of control | dose: 100.0 mg/kg/injection, schedule: Q01DX009 (ip), vehicle: other 90 % of control | [1] 96 % of control | dose: 200.0 mg/kg/injection, schedule: Q01DX001 (ip), vehicle: Klucel (hydroxypropylcellulose) (HPC) 103 % of control | dose: 200.0 mg/kg/injection, schedule: Q01DX009 (ip), vehicle: other 94 % of control | [2] 96 % of control | dose: 400.0 mg/kg/injection, schedule: Q01DX001 (ip), vehicle: Klucel (hydroxypropylcellulose) (HPC) 97 % of control | dose: 400.0 mg/kg/injection, schedule: Q01DX009 (ip), vehicle: other 95 % of control | [3] 103 % of control

CCCCCOB(OCCCCC)OCCCCC
inactive: dose: 50.0 mg/kg/injection, schedule: Q01DX001 (ip), vehicle: carboxymethylcellulose (CMC) 93 % of control | dose: 100.0 mg/kg/injection, schedule: Q01DX001 (ip), vehicle: carboxymethylcellulose (CMC) 95 % of control | dose: 200.0 mg/kg/injection, schedule: Q01DX001 (ip), vehicle: carboxymethylcellulose (CMC) 93 % of control | dose: 400.0 mg/kg/injection, schedule: Q01DX001 (ip), vehicle: carboxymethylcellulose (CMC) 98 % of control

CCOCCOCCOC(C)Oc1ccc(C(=O)OCC)cc1 (stereo not drawn)
inactive: [4] 103 % of control | [5] 100 % of control | [6] 107 % of control

CC1(C)C[N+](C)(Cc2ccccc2)N=C1[O-] (stereo not drawn)
inactive: dose: 25.0 mg/kg/injection, schedule: Q01DX001 (ip), vehicle: saline 94 % of control | [7] 94 % of control | [8] 94 % of control | [9] 102 % of control

COc1ccc(/C=N/NC(=O)c2ccc(N)cc2)c(OC)c1
inactive: dose: 100.0 mg/kg/injection, schedule: Q04DX002 (ip), vehicle: saline 101 % of control | dose: 200.0 mg/kg/injection, schedule: Q04DX002 (ip), vehicle: saline 108 % of control | dose: 400.0 mg/kg/injection, schedule: Q04DX002 (ip), vehicle: saline 97 % of control

CSCc1ccccn1
inactive: [7] 106 % of control | [8] 101 % of control | [9] 93 % of control | [10] 104 % of control

CCOC(=O)C1C2CCCC(=O)C21 (stereo not drawn)
inactive: [1] 96 % of control | [2] 104 % of control | [3] 100 % of control

O=C1c2ccccc2C(=O)N1CCC[P+](c1ccccc1)(c1ccccc1)c1ccccc1
inactive: dose: 6.25 mg/kg/injection, schedule: Q01DX009 (ip), vehicle: saline with Tween-80 106 % of control | [11] 111 % of control | [12] 116 % of control and 120 % of control

ClCOCCCCOCCl
inactive: [13] 114 % of control | dose: 100.0 mg/kg/injection, schedule: Q01DX009 (ip), vehicle: saline 87 % of control

N#Cc1ccc(Cl)cc1.N#Cc1ccc(Cl)cc1.[Cl][Pt][Cl]
inactive: dose: 6.25 mg/kg/injection, schedule: Q04DX003 (ip), vehicle: water 109 % of control | dose: 12.5 mg/kg/injection, schedule: Q04DX003 (ip), vehicle: water 105 % of control | dose: 25.0 mg/kg/injection, schedule: Q04DX003 (ip), vehicle: water 107 % of control | dose: 50.0 mg/kg/injection, schedule: Q04DX003 (ip), vehicle: water 109 % of control

CCCC(=O)Nc1cc([N+](=O)[O-])ccc1O
inactive: dose: 50.0 mg/kg/injection, schedule: Q01DX009 (ip), vehicle: saline with Tween-80 97 % of control and 106 % of control | [4] 93 % of control and 95 % of control | [5] 95 % of control and 97 % of control | [6] 95 % of control and 92 % of control

Cn1[nH]c(=S)c(=O)[nH]c1=O
inactive: [8] 111 % of control | [9] 106 % of control | [10] 101 % of control

Cn1c(=O)cc(CC#N)c2ccccc21
inactive: [14] 100 % of control

CC1CCC2(NC1)OC1CC3C4CC=C5CC(OC(=O)N(CCCl)CCCl)CCC5(C)C4CCC3(C)C1C2C (stereo not drawn)
inactive: dose: 100.0 mg/kg/injection, schedule: Q01DX001 (sc), vehicle: steriod suspending solution 97 % of control | dose: 200.0 mg/kg/injection, schedule: Q01DX001 (sc), vehicle: steriod suspending solution 123 % of control | dose: 400.0 mg/kg/injection, schedule: Q01DX001 (sc), vehicle: steriod suspending solution 97 % of control

O=S(=O)(Nc1ccc(CCc2ccc(NS(=O)(=O)c3ccccc3)cc2)cc1)c1ccccc1
inactive: [15] 95 % of control | [16] 98 % of control | [17] 98 % of control

CCN(CC)CC(C)OC(=O)CCN1CC1 (stereo not drawn)
inactive: dose: 3.0 mg/kg/injection, schedule: Q01DX009 (ip), vehicle: saline 100 % of control | dose: 6.0 mg/kg/injection, schedule: Q01DX009 (ip), vehicle: saline 106 % of control | dose: 12.0 mg/kg/injection, schedule: Q01DX009 (ip), vehicle: saline 103 % of control | dose: 25.0 mg/kg/injection, schedule: Q01DX009 (ip), vehicle: saline 101 % of control | dose: 25.0 mg/kg/injection, schedule: Q04DX003 (ip), vehicle: saline 108 % of control | [13] 95 % of control | dose: 50.0 mg/kg/injection, schedule: Q04DX003 (ip), vehicle: saline 101 % of control | dose: 100.0 mg/kg/injection, schedule: Q04DX003 (ip), vehicle: saline 97 % of control and 111 % of control | dose: 200.0 mg/kg/injection, schedule: Q04DX003 (ip), vehicle: saline 103 % of control

CCOC(=O)c1c[nH]c2c(Cl)cc(Cl)cc2c1=O
inactive: [14] 104 % of control | dose: 200.0 mg/kg/injection, schedule: Q01DX001 (ip), vehicle: other 95 % of control | dose: 400.0 mg/kg/injection, schedule: Q01DX001 (ip), vehicle: other 101 % of control

CCS(=O)c1c(Cl)c(Cl)c(Cl)c(Cl)c1Cl (stereo not drawn)
inactive: [18] 102 % of control | [19] 108 % of control | [20] 95 % of control

Cc1cc(=O)[nH]n1-c1ccc(N)cc1
inactive: [21] 105 % of control | [22] 94 % of control | [23] 103 % of control

Cc1ccc(NC(=O)OCCN(CCOC(=O)Nc2ccc(C)cc2)Cc2ccccc2)cc1
inactive: [8] 94 % of control | [9] 91 % of control | [10] 94 % of control

O=c1ccnc(SCc2ccc(Cl)cc2)[nH]1
inactive: dose: 110.0 mg/kg/injection, schedule: Q01DX Z (ip), vehicle: methylcellulose (MC) 87 % of control

CCOc1ccc2c(O)csc2c1
inactive: [15] 93 % of control | [16] 95 % of control | [17] 97 % of control

CCCCCCCCC1SC1CCCCCCCC(=O)NCCCOCCOCCOCC (stereo not drawn)
inactive: [21] 96 % of control | [22] 100 % of control | [23] 96 % of control

CCCCCC(=O)Nc1cccc(OC(=O)NC)c1
inactive: [15] 98 % of control | [16] 97 % of control | [17] 89 % of control

O=c1[nH]c2cc(F)ccc2o1
inactive: [18] 103 % of control | [21] 104 % of control | [19] 101 % of control | [22] 103 % of control | [20] 111 % of control | [23] 111 % of control

CC(C)SP(=S)(C(C)C)C(C)C
inactive: dose: 100.0 mg/kg/injection, schedule: Q01DX001 (ip), vehicle: saline with Tween-80 115 % of control | dose: 200.0 mg/kg/injection, schedule: Q01DX001 (ip), vehicle: saline with Tween-80 102 % of control | dose: 400.0 mg/kg/injection, schedule: Q01DX001 (ip), vehicle: saline with Tween-80 94 % of control

Cc1cc(C)c(C(Br)C(Br)c2c(C)cc(C)cc2C)c(C)c1 (stereo not drawn)
inactive: [11] 88 % of control | dose: 12.5 mg/kg/injection, schedule: Q04DX003 (ip), vehicle: saline with Tween-80 98 % of control | [12] 87 % of control | dose: 25.0 mg/kg/injection, schedule: Q04DX003 (ip), vehicle: saline with Tween-80 93 % of control | dose: 50.0 mg/kg/injection, schedule: Q04DX003 (ip), vehicle: saline with Tween-80 91 % of control
